≈ marks a conversion by molar mass, not a printed value.
Settings: buffer; pH 7.4; 200.0 µM

**Q.** Which solubility kinetic does the source give for COc1ccc2[nH]c(C(=O)N3CCN(Cc4ccccc4)CC3)cc2c1OC here?
**A.** 51.8 µg/mL (≈ 137 µM)

**Q.** Which solubility kinetic does the source give for O=C(CSc1nc2ccccc2[nH]1)NCc1ccc(F)cc1 here?
**A.** > 47.3 µg/mL

**Q.** For Cc1nc(-c2ccc(C#N)cc2)cs1, which solubility kinetic is on record?
**A.** 13.5 µg/mL (≈ 67.4 µM)

**Q.** With CN/C(=C\[N+](=O)[O-])NCCSCc1csc(CN(C)C)n1 as the compound, how does the solubility kinetic read?
**A.** > 49.7 µg/mL

**Q.** For CNC(=S)N(Cc1ccccc1)Cc1cccnc1, which solubility kinetic is on record?
**A.** 39 µg/mL (≈ 144 µM)

**Q.** Which solubility kinetic does the source give for Cc1ccc(N=C2NC(=O)/C(=C/c3cccn3C)S2)cc1 here?
**A.** 2 µg/mL (≈ 6.73 µM)

**Q.** For COc1ccc(NC(=O)/C=C/c2ccc(OC(F)F)cc2)cn1, which solubility kinetic is on record?
**A.** 2 µg/mL (≈ 6.24 µM)

**Q.** Which solubility kinetic does the source give for Cc1ccc(NC(=O)CSc2nc(C)c(Cc3ccccc3)c(=O)[nH]2)cc1 here?
**A.** 1.4 µg/mL (≈ 3.69 µM)

**Q.** With CCc1ccc(NC2=NCCCS2)cc1 as the compound, how does the solubility kinetic read?
**A.** > 33 µg/mL

**Q.** With O=C(N/N=C/c1cccnc1)c1cccc(Cl)c1 as the compound, how does the solubility kinetic read?
**A.** > 39 µg/mL

**Q.** For Cc1ccc(SCCOCCN2CC(C)OC(C)C2)cc1.Cl (stereo not given), which solubility kinetic is on record?
**A.** 42.5 µg/mL

**Q.** With COC(=O)c1cnc(N2CCOCC2)nc1C(F)(F)F as the compound, how does the solubility kinetic read?
**A.** 35.3 µg/mL (≈ 121 µM)

**Q.** With CC(NC(=O)c1cccs1)c1ccccc1 (stereo not given) as the compound, how does the solubility kinetic read?
**A.** > 34.7 µg/mL

**Q.** With Cc1ccc2c(c1)=C(c1ccccc1)N(O)CC(=O)N=2 as the compound, how does the solubility kinetic read?
**A.** > 39.9 µg/mL

**Q.** With CCOC(=O)Cc1csc(NC(=O)CC(C)(C)CC(=O)O)n1 as the compound, how does the solubility kinetic read?
**A.** > 49.3 µg/mL

**Q.** With N#CCc1nc(C(c2ccccc2)c2ccccc2)no1 as the compound, how does the solubility kinetic read?
**A.** 33.5 µg/mL (≈ 122 µM)

**Q.** For CC(C)S(=O)(=O)c1csc(NC(=O)Nc2ccc(Cl)cc2)c1, which solubility kinetic is on record?
**A.** 2.8 µg/mL (≈ 7.8 µM)

**Q.** With COc1ccc(CC(=O)Nc2cc(S(=O)(=O)Nc3ccc(OC)cc3)ccc2OC)cc1 as the compound, how does the solubility kinetic read?
**A.** 14.6 µg/mL (≈ 32 µM)

**Q.** Which solubility kinetic does the source give for COCCSc1nnc(NC(=O)c2ccco2)s1 here?
**A.** > 42.8 µg/mL

**Q.** With C[C@@H](C(=O)N1CCN(c2ccccc2)CC1)N1C(=O)C2CC=CCC2C1=O (stereo not given in full) as the compound, how does the solubility kinetic read?
**A.** > 55.1 µg/mL

**Q.** Which solubility kinetic does the source give for CCC(=NCc1cccnc1)c1c(O)n(-c2ccccc2)c(=O)[nH]c1=O here?
**A.** 43.5 µg/mL (≈ 124 µM)

**Q.** Which solubility kinetic does the source give for O=C(O)C1CCN(C(=O)c2cccc3ccccc23)CC1 here?
**A.** > 42.5 µg/mL

**Q.** For Cc1ccc(C(=O)NC(C)C2CCCO2)o1 (stereo not given), which solubility kinetic is on record?
**A.** > 33.5 µg/mL

**Q.** Which solubility kinetic does the source give for CN(C)C(=O)c1cc(C(=O)c2ccccc2Br)c[nH]1 here?
**A.** 44.4 µg/mL (≈ 138 µM)

**Q.** With CC1(C)SC(=S)N(c2ccccc2)C1/[N+]([O-])=C/c1cccc([N+](=O)[O-])c1 (stereo not given) as the compound, how does the solubility kinetic read?
**A.** 6.2 µg/mL (≈ 16 µM)

**Q.** Which solubility kinetic does the source give for CCn1ccc(-c2ccccc2)c(C#N)c1=O here?
**A.** > 33.6 µg/mL

**Q.** For O=C(Nc1cc(Cl)ccc1N1CCOCC1)c1cccnc1, which solubility kinetic is on record?
**A.** > 47.7 µg/mL

**Q.** With CCN(CC)C(=O)Cn1cc(SCC(=O)NC)c2ccccc21 as the compound, how does the solubility kinetic read?
**A.** 46.5 µg/mL (≈ 139 µM)

**Q.** Which solubility kinetic does the source give for O=C(Nc1ccc(CN2CCOCC2)cc1)c1ccco1 here?
**A.** > 42.9 µg/mL

**Q.** With COc1ccc(Nc2ncnc3sccc23)cc1OC as the compound, how does the solubility kinetic read?
**A.** 36.9 µg/mL (≈ 128 µM)

**Q.** For CC1CCCCC1NC(=O)c1cc(=O)[nH]c2ccccc12 (stereo not given), which solubility kinetic is on record?
**A.** 3.6 µg/mL (≈ 12.7 µM)

**Q.** With CCN(CC(=O)NC1CC1)S(=O)(=O)c1ccc(C)cc1 as the compound, how does the solubility kinetic read?
**A.** > 44.5 µg/mL

**Q.** For O=C(COC(=O)c1ccc(Cl)c(S(=O)(=O)N2CCCC2)c1)NCc1ccccc1, which solubility kinetic is on record?
**A.** 26.1 µg/mL (≈ 59.7 µM)

**Q.** With CC(CN1CCCC1)OC(=O)c1ccc(F)cc1.Cl (stereo not given) as the compound, how does the solubility kinetic read?
**A.** > 43.2 µg/mL

**Q.** Which solubility kinetic does the source give for CCN(C(=O)COC(=O)c1ccc[nH]c1=O)c1cccc2ccccc12 here?
**A.** > 52.6 µg/mL

**Q.** With Fc1ccc(CNC(=S)NC2CCCCCC2)cc1 as the compound, how does the solubility kinetic read?
**A.** 28.3 µg/mL (≈ 101 µM)

**Q.** For O=C(O)c1ccccc1NCc1ccsc1, which solubility kinetic is on record?
**A.** > 35 µg/mL

**Q.** Which solubility kinetic does the source give for O=C(NCc1ccncc1)NC1CCCCC1 here?
**A.** > 35 µg/mL

**Q.** For c1csc(-c2cn3ccc4ccccc4c3n2)c1, which solubility kinetic is on record?
**A.** 10.7 µg/mL (≈ 42.7 µM)

**Q.** Which solubility kinetic does the source give for Cc1cc(C(=O)OCC(=O)Nc2nccs2)c2ccccc2n1 here?
**A.** 6.8 µg/mL (≈ 20.8 µM)

**Q.** Which solubility kinetic does the source give for Cl.O=C(OCCN1CCCCC1)c1cccc(F)c1 here?
**A.** > 43.2 µg/mL

**Q.** Which solubility kinetic does the source give for O=C(O)/C=C/c1cn(-c2ccccc2)nc1-c1ccccc1 here?
**A.** > 43.5 µg/mL

**Q.** Which solubility kinetic does the source give for CC1CN(C(=O)c2ccccc2NS(=O)(=O)c2ccc(Cl)cc2)CC(C)O1 (stereo not given) here?
**A.** > 61.3 µg/mL

**Q.** With CCN(Cc1nc2ccccc2n1C)c1ccccc1 as the compound, how does the solubility kinetic read?
**A.** 30.7 µg/mL (≈ 116 µM)

**Q.** For CCC(NS(=O)(=O)c1cccs1)c1ccc(C)cc1 (stereo not given), which solubility kinetic is on record?
**A.** > 44.3 µg/mL

**Q.** For O=C(O)COc1ccc(S(=O)(=O)N2CCCC2)cc1, which solubility kinetic is on record?
**A.** > 42.8 µg/mL

**Q.** For CC1CN(C(=O)Cn2c(=O)oc3ccccc32)CC(C)O1 (stereo not given), which solubility kinetic is on record?
**A.** 43.1 µg/mL (≈ 148 µM)

**Q.** Which solubility kinetic does the source give for COc1ccccc1N1CCN(C(=O)c2cc3cc(F)ccc3[nH]2)CC1 here?
**A.** 0.7 µg/mL (≈ 1.98 µM)

**Q.** For CCc1sc(C(=O)NC(C)C2CCCO2)cc1Br (stereo not given), which solubility kinetic is on record?
**A.** 49.5 µg/mL (≈ 149 µM)

**Q.** For Cc1ccc(NC(=O)COC(=O)c2cccnc2)c(C)c1, which solubility kinetic is on record?
**A.** > 42.6 µg/mL

**Q.** For NC(=O)c1cc(-c2cccnc2)nc2ccc(Br)cc12, which solubility kinetic is on record?
**A.** 2.2 µg/mL (≈ 6.7 µM)

**Q.** With O=C(NCc1cccnc1)Nc1ccc(Cl)cc1 as the compound, how does the solubility kinetic read?
**A.** > 39.3 µg/mL

**Q.** Which solubility kinetic does the source give for CC(=O)NC(=O)COC(=O)c1ccc2ncsc2c1 here?
**A.** 27.5 µg/mL (≈ 98.8 µM)

**Q.** Which solubility kinetic does the source give for O=C(O)c1cc(-c2cccc3ccccc23)nc2ccccc12 here?
**A.** > 44.9 µg/mL

**Q.** Which solubility kinetic does the source give for O=C(NCc1ccccn1)Nc1cccc([N+](=O)[O-])c1 here?
**A.** > 40.8 µg/mL

**Q.** With NC(=O)COc1c(-c2ccc(Br)o2)oc2ccccc2c1=O as the compound, how does the solubility kinetic read?
**A.** 11.1 µg/mL (≈ 30.5 µM)

**Q.** With COc1ccccc1N(CC(=O)Nc1cc(S(=O)(=O)N(C)C)ccc1C)S(=O)(=O)c1cccs1 as the compound, how does the solubility kinetic read?
**A.** 14.4 µg/mL (≈ 27.5 µM)

**Q.** With CCn1c(C)c(C)c2cc(C(=O)NCCc3ccco3)ccc21 as the compound, how does the solubility kinetic read?
**A.** 24.4 µg/mL (≈ 78.6 µM)

**Q.** With COc1ccc(N2C(=O)NC(NC(=O)C(C)(C)C)(C(F)(F)F)C2=O)cc1 (stereo not given) as the compound, how does the solubility kinetic read?
**A.** > 56 µg/mL

**Q.** Which solubility kinetic does the source give for O=C(O)/C=C/c1ccccc1[N+](=O)[O-] here?
**A.** > 29 µg/mL

Reference: PubChem BioAssay AID1996
